Test results reported in publication PMC6934184, “Selective DNA-PKcs inhibition extends the therapeutic index of localized radiotherapy and chemotherapy” (The Journal of Clinical Investigation, 2019).

Molecular target: T1, CSK (Homo sapiens, UniProt P41240)
T1 construct: purchased Thermo Fisher Scientific (Life Technologies) SelectScreen
Assay: SelectScreen Z'LYTE
Format: biochemical
How it was run: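 NU5455 was profiled across the SelectScreen Broad panel of kinase activity and binding assays. Z'LYTE reactions such as CSF1R ran at apparent Km ATP, while the Adapta CAMK1 assay used ATP listed as 10. Values are given as percent.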

T1 sequence (P41240 whole entry): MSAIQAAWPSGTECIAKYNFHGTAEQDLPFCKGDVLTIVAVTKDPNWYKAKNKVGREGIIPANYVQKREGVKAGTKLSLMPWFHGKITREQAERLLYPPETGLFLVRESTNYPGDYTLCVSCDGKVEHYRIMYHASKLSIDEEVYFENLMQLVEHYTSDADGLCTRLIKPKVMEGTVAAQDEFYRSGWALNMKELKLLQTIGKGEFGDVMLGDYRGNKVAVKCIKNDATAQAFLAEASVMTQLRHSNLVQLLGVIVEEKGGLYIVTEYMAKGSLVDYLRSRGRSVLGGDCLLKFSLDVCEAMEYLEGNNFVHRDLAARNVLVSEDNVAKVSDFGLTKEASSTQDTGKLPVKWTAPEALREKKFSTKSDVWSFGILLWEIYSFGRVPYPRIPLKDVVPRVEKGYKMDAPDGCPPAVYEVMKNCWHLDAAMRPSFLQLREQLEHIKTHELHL

`CN(C(=O)CN1CCOCC1)c1ccc2sc3c(-c4cccc5c(=O)cc(N6CC7CCC(C6)O7)oc45)cccc3c2c1` [NU5455] was tested, and the inhibition at 1 µM was 7.6%.
